Source: patent publication US11253525B2, “Inhibitors of indoleamine 2,3-dioxygenase and methods of their use” (BRISTOL-MYERS SQUIBB COMPANY, priority 2018, dated 2022)

The compounds below were run against T1, indoleamine 2,3-dioxygenase (IDO) (Homo sapiens, UniProt P14902) (assay: HeLa cell-based indoleamine 2,3-dioxygenase (IDO) assay, kynurenine production). Details: HeLa cells, IFNγ 25 ng/mL, 48 hour incubation; read-out: IDO Hela IC50.
T1 construct: replaced with media containing IFNγ (#285-IF/CF, R&D Systems) at a final concentration of 25 ng/mL; endogenous in cells; host or cells: HeLa (ATCC CCL-2), IFN-gamma stimulated
Description: Assessment of Inhibitor Activity in HeLa Cell-Based Indoleamine 23-Dioxygenase (IDO) Assay
Cells were maintained in a humidified incubator at 37° C. in 5% CO2.
IDO activity was assessed as a function of kynurenine production as follows: HeLa cells were seeded in a 96-well culture plate at a density of 5,000 cells/well and allowed to equilibrate overnight. […] A serial dilution of each test compound was added to the cells in a total volume of 200 μL of culture medium. After a further 48 hour incubation, 170 μL of supernatant was transferred from each well to a fresh 96-well plate. 12.1 μL of 6.1N trichloroacetic acid (#T0699, Sigma-Aldrich) was added to each well and mixed, followed by incubation at 65° C. for 20 minutes to hydrolyze N-formylkynurenine, the product of indoleamine 2,3-dioxygenase, to kynurenine. The reaction mixture was then centrifuged for 10 mins at 500×g to sediment the precipitate. 100 μL of the supernatant was transferred from each well to a fresh 96-well plate. […] Kynurenine concentrations were determined by measuring absorbance at 480 nm and calibrating against an L-kynurenine (#K8625, Sigma-Aldrich) standard curve using a SPECTRAMAX® M2e microplate reader (Molecular Devices). The percentage activity at each inhibitor concentration was determined and IC50 values assessed using nonlinear regression.

T1 sequence (P14902 whole entry): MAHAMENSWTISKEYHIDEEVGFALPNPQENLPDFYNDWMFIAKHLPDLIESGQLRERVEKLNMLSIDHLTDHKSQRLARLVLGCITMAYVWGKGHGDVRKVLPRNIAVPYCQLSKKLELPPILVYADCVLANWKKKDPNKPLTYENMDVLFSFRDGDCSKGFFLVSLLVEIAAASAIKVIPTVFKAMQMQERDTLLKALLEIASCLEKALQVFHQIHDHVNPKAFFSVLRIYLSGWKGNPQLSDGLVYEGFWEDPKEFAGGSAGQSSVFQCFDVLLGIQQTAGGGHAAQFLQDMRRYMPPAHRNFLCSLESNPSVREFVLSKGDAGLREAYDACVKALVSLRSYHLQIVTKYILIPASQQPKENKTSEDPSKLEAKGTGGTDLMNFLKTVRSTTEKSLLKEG

Point of comparison: CCO[C@H](c1ccc([C@H](COC)CC(=O)O)cc1Nc1ccc(Cl)cc1)C(F)(F)F (single isomer, unassigned) [Example 58], IC50 20 nM. Against it:
- CCO[C@H](c1ccc([C@H](CC)CC(=O)O)cc1Nc1cnc(COC)nc1)C(F)(F)F (single isomer, unassigned) [Example 16] — 30-fold higher, 610 nM
- CCO[C@H](c1ccc([C@@H](CC)CC(=O)O)cc1NC(=O)Nc1ccc(C)cc1)C(F)(F)F (single isomer, unassigned) [Example 19] — 29-fold higher, 580 nM
- CCO[C@H](c1ccc([C@@H](CC)CC(=O)O)cc1NC(=O)Nc1ccc(Cl)cc1F)C(F)(F)F (single isomer, unassigned) [Example 20] — 2-fold lower, 10 nM
- CCO[C@H](c1ccc([C@@H](CC)CC(=O)O)cc1Nc1cnc(OC)nc1)C(F)(F)F (single isomer, unassigned) [Example 22] — 2-fold lower, 10 nM
- CCO[C@H](c1ccc([C@@H](CC)CC(=O)O)cc1Nc1cnc(OC)cn1)C(F)(F)F (single isomer, unassigned) [Example 25] — 2-fold lower, 10 nM
- CCO[C@H](c1ccc([C@@H](CC)CC(=O)O)cc1Nc1cnc(COC)nc1)C(F)(F)F (single isomer, unassigned) [Example 27] — 4.5-fold higher, 90 nM
- CCO[C@H](c1ccc([C@@H](CC)CC(=O)O)cc1Nc1cnc(CC)nc1)C(F)(F)F (single isomer, unassigned) [Example 29] — the same, 20 nM
- CCO[C@@H](c1ccc([C@H](CC)CC(=O)O)cc1NC(=O)Nc1ccc(C)cc1)C(F)(F)F (single isomer, unassigned) [Example 31] — the same, 20 nM
- CCO[C@@H](c1ccc([C@H](CC)CC(=O)O)cc1Nc1cnc(OC)nc1)C(F)(F)F (single isomer, unassigned) [Example 33] — 1.5-fold higher, 30 nM
- CCO[C@@H](c1ccc([C@H](CC)CC(=O)O)cc1Nc1cnc(COC)nc1)C(F)(F)F (single isomer, unassigned) [Example 38] — 30-fold higher, 610 nM
- CCO[C@@H](c1ccc([C@H](CC)CC(=O)O)cc1Nc1cnc(C)nc1)C(F)(F)F (single isomer, unassigned) [Example 39] — 5-fold higher, 100 nM
- CCO[C@@H](c1ccc([C@H](CC)CC(=O)O)cc1Nc1cnc(CC)nc1)C(F)(F)F (single isomer, unassigned) [Example 40] — the same, 20 nM
- CCO[C@@H](c1ccc([C@@H](CC)CC(=O)O)cc1NC(=O)Nc1ccc(C)cc1)C(F)(F)F (single isomer, unassigned) [Example 41] — the same, 20 nM
- CCO[C@@H](c1ccc([C@@H](CC)CC(=O)O)cc1Nc1cnc(OC)nc1)C(F)(F)F (single isomer, unassigned) [Example 43] — 2-fold lower, 10 nM
- CCOc1ncc(Nc2cc([C@@H](CC)CC(=O)O)ccc2[C@H](OCC)C(F)(F)F)cn1 (single isomer, unassigned) [Example 45] — 1.5-fold higher, 30 nM
- CCO[C@@H](c1ccc([C@@H](CC)CC(=O)O)cc1Nc1cnc(COC)nc1)C(F)(F)F (single isomer, unassigned) [Example 49] — 22-fold higher, 440 nM
- CCO[C@@H](c1ccc([C@@H](CC)CC(=O)O)cc1Nc1ccc(F)cc1)C(F)(F)F (single isomer, unassigned) [Example 51] — the same, 20 nM
- CCOC(c1ccc(C(COC)CC(=O)O)cc1NC(=O)Nc1ccc(C)cc1)C(F)(F)F (single isomer, unassigned) [Example 52] — 12-fold higher, 230 nM
- CCO[C@H](c1ccc([C@H](COC)CC(=O)O)cc1NC(=O)Nc1ccc(Cl)cc1F)C(F)(F)F (single isomer, unassigned) [Example 53] — 2-fold higher, 40 nM
- CCO[C@H](c1ccc([C@H](COC)CC(=O)O)cc1Nc1ccc(C#N)c(F)c1)C(F)(F)F (single isomer, unassigned) [Example 55] — 2-fold lower, 10 nM
- CCO[C@H](c1ccc([C@@H](COC)CC(=O)O)cc1NC(=O)Nc1ccc(C)cc1)C(F)(F)F (single isomer, unassigned) [Example 60] — 46-fold higher, 910 nM
- CCO[C@H](c1ccc([C@@H](COC)CC(=O)O)cc1NC(=O)Nc1ccc(Cl)cc1F)C(F)(F)F (single isomer, unassigned) [Example 61] — 9.5-fold higher, 190 nM
- CCO[C@H](c1ccc([C@@H](COC)CC(=O)O)cc1Nc1cnc(OC)nc1)C(F)(F)F (single isomer, unassigned) [Example 62] — 2-fold higher, 40 nM
- CCO[C@H](c1ccc([C@@H](COC)CC(=O)O)cc1Nc1ccc(C#N)cc1)C(F)(F)F (single isomer, unassigned) [Example 65] — 2-fold lower, 10 nM
- CCO[C@H](c1ccc([C@@H](COC)CC(=O)O)cc1Nc1cnc(C)nc1)C(F)(F)F (single isomer, unassigned) [Example 67] — 20-fold higher, 410 nM
- CCO[C@@H](c1ccc([C@H](COC)CC(=O)O)cc1NC(=O)Nc1ccc(Cl)cc1F)C(F)(F)F (single isomer, unassigned) [Example 68] — 12-fold higher, 240 nM
- CCO[C@@H](c1ccc([C@H](COC)CC(=O)O)cc1Nc1cnc(OC)nc1)C(F)(F)F (single isomer, unassigned) [Example 69] — 31-fold higher, 620 nM
- CCO[C@@H](c1ccc([C@H](COC)CC(=O)O)cc1Nc1ccc(Cl)cc1)C(F)(F)F (single isomer, unassigned) [Example 72] — 2-fold lower, 10 nM
- CCO[C@@H](c1ccc([C@@H](COC)CC(=O)O)cc1NC(=O)Nc1ccc(Cl)cc1F)C(F)(F)F (single isomer, unassigned) [Example 75] — 2-fold higher, 40 nM
- CCO[C@@H](c1ccc([C@@H](COC)CC(=O)O)cc1Nc1cnc(OC)nc1)C(F)(F)F (single isomer, unassigned) [Example 76] — 35-fold higher, 700 nM
- CCO[C@@H](c1ccc([C@@H](COC)CC(=O)O)cc1Nc1ccc(C#N)c(F)c1)C(F)(F)F (single isomer, unassigned) [Example 77] — 1.5-fold higher, 30 nM

Same assay, conditions: HeLa cells, IFNγ 25 ng/mL, 48 hour incubation; read-out: IDO Hela IC50 class (A < 50, B < 250, C < 2000)

CCO[C@H](c1ccc([C@@H](CC)CC(=O)O)cc1Nc1ccc(C#N)cc1)C(F)(F)F (single isomer, unassigned) [Example 26] and CCO[C@@H](c1ccc([C@H](CC)CC(=O)O)cc1Nc1ccc(C#N)cc1)C(F)(F)F (single isomer, unassigned) [Example 37] cannot be ordered by IC50: under 50 nM for the first, under 50 nM for the second.

Compared with CCO[C@H](c1ccc([C@@H](CC)CC(=O)O)cc1Nc1cnc(C)nc1)C(F)(F)F (single isomer, unassigned) [Example 28], CCO[C@H](c1ccc([C@H](COC)CC(=O)O)cc1Nc1cnc(C)nc1)C(F)(F)F (single isomer, unassigned) [Example 59] is higher in IC50: under 50 nM for the first, 250 to 2000 nM for the second.

CCO[C@@H](c1ccc([C@H](CC)CC(=O)O)cc1NC(=O)Nc1ccc(Cl)cc1F)C(F)(F)F (single isomer, unassigned) [Example 32] and CCO[C@@H](c1ccc([C@@H](CC)CC(=O)O)cc1Nc1ccc(F)cc1)C(F)(F)F (single isomer, unassigned) [Example 51] cannot be ordered by IC50: under 50 nM for the first, under 50 nM for the second.

CCO[C@H](c1ccc([C@H](COC)CC(=O)O)cc1Nc1ncc(F)cn1)C(F)(F)F (single isomer, unassigned) [Example 56] and CCO[C@@H](c1ccc([C@H](COC)CC(=O)O)cc1Nc1ncc(F)cn1)C(F)(F)F (single isomer, unassigned) [Example 71] fall in the same range of IC50: 250 to 2000 nM for the first, 250 to 2000 nM for the second.

First: CCO[C@H](c1ccc([C@@H](COC)CC(=O)O)cc1Nc1ccc(Cl)cc1)C(F)(F)F (single isomer, unassigned) [Example 66]
Second: CCO[C@@H](c1ccc([C@H](COC)CC(=O)O)cc1Nc1cnc(C)nc1)C(F)(F)F (single isomer, unassigned) [Example 74]
The IC50 of the first is lower: under 50 nM for the first, 250 to 2000 nM for the second. The first is the more potent here.
